Data reported in patent publication US7812183B2, “Benzopyran derivatives as potassium channel openers” (Janssen Pharmaceutica NV, priority 2005, dated 2010).

Biological target: T1, KATP channels (Homo sapiens, UniProt O60706+Q14654)
T1 construct: TE671 human medulloblastoma cells were obtained from ATCC; host or cells: TE671 human medulloblastoma cells
Experiment: Potassium Channel Assay (FLIPR membrane potential, TE671 cells)
Type: cell-based
Details: TE671 human medulloblastoma cells, Membrane Potential Assay Dye, room temperature, hyperpolarization from KATP channel opening
Procedure: TE671 human medulloblastoma cells were obtained from ATCC and grown in Dulbecco's modified Eagle's medium (DMEM) supplemented with 10% fetal bovine serum, 100 U/ml penicillin and 100 U/ml streptomycine.
The day before testing, the cells were plated in black 96-well plates at 50K/well. On the day of testing, the growth media was removed, then 100 μl of FLIPR buffer (20 mM HEPES, 120 mM NaCl, 2 mM KCl, 2 mM CaCl2, 1 mM MgCl2, 5 mM Glucose) and 100 μl of Membrane Potential Assay Dye (Molecular Devices) dissolved in FLIPR buffer were added to each well. The cells were incubated at room temperature for 15 to 30 min.
The effect of test compounds on KATP channels were evaluated on a fluorometric imaging plate reader (FLIPR, Molecular Devices) at room temperature. After a baseline period, 50 μl of 5× stock solution of test compound prepared in FLIPR buffer was added and fluorescent change was monitored for 3 minutes. After this reading, glyburide, a KATP channel blocker, was added to a final concentration of 5 μM to check the specificity of the test compound as a KATP channel openers. Hyperpolarization resulting from KATP channel opening was observed as a decrease in fluorescent intensity.
Representative compounds of the present invention were tested according to the procedure described above, with results as listed in Table 7, below.

T1 sequence (O60706 1-1549 isoform O60706-2): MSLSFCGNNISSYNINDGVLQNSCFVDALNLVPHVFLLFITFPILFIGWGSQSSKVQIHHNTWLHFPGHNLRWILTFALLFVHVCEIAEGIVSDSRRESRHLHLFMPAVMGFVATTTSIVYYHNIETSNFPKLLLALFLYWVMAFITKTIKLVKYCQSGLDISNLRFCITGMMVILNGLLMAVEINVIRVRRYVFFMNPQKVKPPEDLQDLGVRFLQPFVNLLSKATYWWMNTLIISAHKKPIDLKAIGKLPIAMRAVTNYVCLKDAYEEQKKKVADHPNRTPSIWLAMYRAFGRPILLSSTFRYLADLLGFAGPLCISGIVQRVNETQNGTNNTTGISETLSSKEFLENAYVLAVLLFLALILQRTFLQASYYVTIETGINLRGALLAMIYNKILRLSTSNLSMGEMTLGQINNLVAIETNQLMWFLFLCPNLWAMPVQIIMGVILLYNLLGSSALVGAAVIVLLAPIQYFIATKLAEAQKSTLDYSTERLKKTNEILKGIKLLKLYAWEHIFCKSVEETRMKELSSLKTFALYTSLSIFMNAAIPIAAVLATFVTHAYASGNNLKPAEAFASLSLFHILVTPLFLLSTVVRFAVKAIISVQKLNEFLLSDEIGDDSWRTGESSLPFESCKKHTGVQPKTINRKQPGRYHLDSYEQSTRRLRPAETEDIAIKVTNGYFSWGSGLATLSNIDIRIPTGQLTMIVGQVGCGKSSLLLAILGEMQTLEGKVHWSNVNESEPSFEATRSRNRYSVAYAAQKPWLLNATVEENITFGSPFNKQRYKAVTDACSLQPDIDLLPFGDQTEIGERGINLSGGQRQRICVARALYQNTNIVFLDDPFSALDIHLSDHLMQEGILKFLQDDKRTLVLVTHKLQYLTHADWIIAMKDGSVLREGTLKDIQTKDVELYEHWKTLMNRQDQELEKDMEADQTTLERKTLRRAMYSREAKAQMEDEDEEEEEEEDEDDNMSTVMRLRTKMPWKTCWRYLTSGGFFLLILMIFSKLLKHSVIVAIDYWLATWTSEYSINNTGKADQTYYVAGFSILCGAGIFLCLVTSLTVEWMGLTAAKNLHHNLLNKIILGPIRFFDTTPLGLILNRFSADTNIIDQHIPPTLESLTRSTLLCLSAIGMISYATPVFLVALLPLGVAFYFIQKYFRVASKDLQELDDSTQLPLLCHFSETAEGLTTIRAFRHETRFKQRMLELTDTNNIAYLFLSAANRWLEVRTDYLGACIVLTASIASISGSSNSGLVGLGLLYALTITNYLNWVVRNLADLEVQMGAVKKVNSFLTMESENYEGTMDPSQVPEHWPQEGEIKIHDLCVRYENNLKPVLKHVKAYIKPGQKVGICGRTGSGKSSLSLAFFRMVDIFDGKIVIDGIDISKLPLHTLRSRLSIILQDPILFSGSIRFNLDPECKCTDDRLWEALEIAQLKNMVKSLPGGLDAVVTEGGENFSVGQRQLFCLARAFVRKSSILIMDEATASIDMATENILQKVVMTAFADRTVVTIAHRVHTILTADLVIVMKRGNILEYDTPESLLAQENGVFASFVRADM
T1 sequence (Q14654 whole entry): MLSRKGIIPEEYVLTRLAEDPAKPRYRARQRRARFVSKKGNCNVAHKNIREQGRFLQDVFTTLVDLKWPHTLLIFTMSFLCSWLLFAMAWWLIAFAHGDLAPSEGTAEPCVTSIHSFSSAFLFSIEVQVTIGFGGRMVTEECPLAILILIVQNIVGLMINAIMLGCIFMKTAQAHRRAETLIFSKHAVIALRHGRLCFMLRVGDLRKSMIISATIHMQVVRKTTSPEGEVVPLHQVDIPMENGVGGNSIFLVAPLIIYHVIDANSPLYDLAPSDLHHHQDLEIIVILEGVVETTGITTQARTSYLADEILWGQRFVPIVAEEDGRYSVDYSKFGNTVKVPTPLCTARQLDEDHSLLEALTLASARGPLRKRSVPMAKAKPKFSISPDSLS

SMILES	EC50 [µM]
CC1(C)Oc2ccc(C#N)cc2[C@@H](NP(=O)(c2ccccc2)c2ccccc2)[C@@H]1O [Compound 65]	> 30
COc1ccc2onc(O[C@@H]3c4cc(C#N)ccc4OC(C)(C)[C@H]3O)c2c1 [Compound 44, (3S,4R)-3-Hydroxy-4-(5-methoxy-benzo[d]isoxazol-3-yloxy)-2,2-dimethyl-chroman-6-carbonitrile]	12.3
CC1(C)C=C(n2cncc2-c2ccc(Cl)cc2)c2cc(C#N)ccc2O1 [Compound 63, 4-[5-(4-Chloro-phenyl)-imidazol-1-yl]-2,2-dimethyl-2H-chromene-6-carbonitrile]	7.9
CC1(C)Oc2ccc(C#N)cc2[C@@H](n2c(=O)ccn2-c2ccc(Cl)cc2)[C@@H]1O (racemic) [Compound 15, 4-[2-(4-Chloro-phenyl)-5-oxo-2,5-dihydro-pyrazol-1-yl]-3-hydroxy-2,2-dimethyl-chroman-6-carbonitrile]	5.93
CC1(C)Oc2ccncc2[C@@H](Nc2nc3cc(Cl)ccc3s2)[C@@H]1O (racemic) [Compound 106, 4-(5-Chloro-benzothiazol-2-ylamino)-2,2-dimethyl-3,4-dihydro-2H-pyrano[3,2-c]pyridin-3-ol]	19.5
CC1(C)Oc2ccc(C#N)cc2[C@@H](SC2=NCCO2)[C@@H]1O (stereo in doubt) [Compound 68, 4-(4,5-Dihydro-oxazol-2-ylsulfanyl)-3-hydroxy-2,2-dimethyl-chroman-6-carbonitrile]	3.45
CC1(C)Oc2ccc(C#N)cc2[C@@H](S(=O)(=O)c2noc3cc(Cl)ccc23)[C@@H]1O (racemic) [Compound 19, 4-(6-Chloro-benzo[d]isoxazole-3-sulfonyl)-3-hydroxy-2,2-dimethyl-chroman-6-carbonitrile]	15.4
CC1(C)Oc2ccc(C(=O)c3ccccc3)cc2[C@@H](Nc2noc3ccc(Cl)cc23)[C@@H]1O [Compound 92, [4R-(5-Chloro-benzo[d]isoxazol-3-ylamino)-3S-hydroxy-2,2-dimethyl-chroman-6-yl]-phenyl-methanone]	20.4
CC1(C)C=C(n2nc(-c3ccc(Cl)cc3)ccc2=O)c2cc(C#N)ccc2O1 [Compound 57, 4-[3-(4-Chloro-phenyl)-6-oxo-6H-pyridazin-1-yl]-2,2-dimethyl-2H-chromene-6-carbonitrile]	19.9
CCN(CC)S(=O)(=O)c1ccc2c(c1)[C@@H](Nc1noc3cc(Cl)ccc13)[C@H](O)C(C)(C)O2 [Compound 81, 4R-(6-Chloro-benzo[d]isoxazol-3-ylamino)-3S-hydroxy-2,2-dimethyl-chroman-6-sulfonic acid diethylamide]	13.6
CC1(C)Oc2ccc(C#N)cc2[C@@H](n2c(=O)ccn2-c2ccccc2)[C@@H]1O (racemic) [Compound 62, 3-Hydroxy-2,2-dimethyl-4-(5-oxo-2-phenyl-2,5-dihydro-pyrazol-1-yl)-chroman-6-carbonitrile]	13.5
CC1(C)Oc2ccc(C#N)cc2[C@@H](S(=O)(=O)c2nc3cc(Cl)ccc3o2)[C@@H]1O (racemic) [Compound 17, 4-(5-Chloro-benzooxazole-2-sulfonyl)-3-hydroxy-2,2-dimethyl-chroman-6-carbonitrile]	6.77
CC1(C)Oc2ccc(C#N)cc2[C@@H](Nc2noc3cc(Cl)ccc23)[C@@H]1O [Compound 67, (3S,4R)-4-(6-Chloro-benzo[d]isoxazol-3-ylamino)-3-hydroxy-2,2-dimethyl-chroman-6-carbonitrile]	6.18
CC1(C)Oc2ccc(C#N)cc2[C@@H](n2nc(-c3ccc(Cl)cc3)ccc2=O)[C@@H]1O (racemic) [Compound 14, 4-[3-(4-Chloro-phenyl)-6-oxo-6H-pyridazin-1-yl]-3-hydroxy-2,2-dimethyl-chroman-6-carbonitrile]	> 30
CC1(C)Oc2ccc(C#N)cc2[C@@H](S(=O)(=O)c2nc3cc(Cl)c(F)cc3[nH]2)[C@@H]1O [Compound 72, 4R-(5-Chloro-6-fluoro-1H-benzoimidazole-2-sulfonyl)-3S-hydroxy-2,2-dimethyl-chroman-6-carbonitrile]	20.2
CC1(C)Oc2ccncc2[C@@H](n2nccc2-c2ccc(Cl)cc2)[C@@H]1O (racemic) [Compound 108, 4-[5-(4-Chloro-phenyl)-pyrazol-1-yl]-2,2-dimethyl-3,4-dihydro-2H-pyrano[3,2-c]pyridin-3-ol]	4.33
CC1(C)C=C(n2c(N)nc3cc(Cl)ccc32)c2cc(C#N)ccc2O1 [Compound 45, 4-(2-Amino-5-chloro-benzoimidazol-1-yl)-2,2-dimethyl-2H-chromene-6-carbonitrile]	> 30
CC1(C)Oc2ccc(C#N)cc2[C@@H](n2oc3cc(Cl)ccc3c2=O)[C@@H]1O [Compound 117, 4R-(6-Chloro-3-oxo-3H-benzo[d]isoxazol-2-yl)-3S-hydroxy-2,2-dimethyl-chroman-6-carbonitrile]	> 30
CC1(C)Oc2ccc(C#N)cc2[C@@H](n2ccnc2-c2ccccc2)[C@@H]1O (racemic) [Compound 47, 3-Hydroxy-2,2-dimethyl-4-(2-phenyl-imidazol-1-yl)-chroman-6-carbonitrile]	> 30
CC1(C)Oc2ccc(S(=O)(=O)c3ccccc3)cc2[C@@H](Oc2noc3cc(Cl)ccc23)[C@@H]1O [Compound 77, 6-Benzenesulfonyl-4R-(6-chloro-benzo[d]isoxazol-3-yloxy)-2,2-dimethyl-chroman-3S-ol]	> 30
CC1(C)Oc2ccc(C#N)cc2[C@@H](n2nccc2-c2ccc(Cl)cc2)[C@@H]1O [Compound 10, 4R-[5-(4-Chloro-phenyl)-pyrazol-1-yl]-3S-hydroxy-2,2-dimethyl-chroman-6-carbonitrile]	1.5
CC1(C)Oc2ccc(C(=O)c3ccccc3)cc2[C@@H](n2oc3cc(Cl)ccc3c2=O)[C@@H]1O [Compound 96, 2-(6-Benzoyl-3S-hydroxy-2,2-dimethyl-chroman-4-yl)-6-chloro-4R-benzo[d]isoxazol-3-one]	6.45

More lines, now with the values ahead:

EC50 [µM]	SMILES
> 30	CC1(C)Oc2ccc(Cl)cc2[C@@H](n2ccnc2-c2ccccc2)[C@@H]1O (racemic) [Compound 49, 6-Chloro-2,2-dimethyl-4-(2-phenyl-imidazol-1-yl)-chroman-3-ol]
21.5	CC1(C)Oc2ccc(S(=O)(=O)c3cccc(F)c3)cc2[C@@H](Oc2noc3cc(Cl)ccc23)[C@@H]1O [Compound 99, 4R-(6-Chloro-benzo[d]isoxazol-3-yloxy)-6-(3-fluoro-benzenesulfonyl)-2,2-dimethyl-chroman-3S-ol]
10.3	CC1(C)Oc2cc(Cl)c(Cl)cc2[C@@H](n2oc3cc(Cl)ccc3c2=O)[C@@H]1O [Compound 94, 6-Chloro-2-(6,7-dichloro-3S-hydroxy-2,2-dimethyl-chroman-4-yl)-R-benzo[d]isoxazol-3-one]
1.95	CC1(C)Oc2ccc(S(=O)(=O)c3cccc(F)c3)cc2[C@@H](n2oc3cc(Cl)ccc3c2=O)[C@@H]1O [Compound 100, 4R-6-Chloro-2-[6-(3-fluoro-benzenesulfonyl)-3S-hydroxy-2,2-dimethyl-chroman-4-yl]-R-benzo[d]isoxazol-3-one]
16.6	CC1(C)Oc2ccc(Cl)cc2[C@@H](OC2=NN(c3ccccc3)CC2)[C@@H]1O (racemic) [Compound 59, 6-Chloro-2,2-dimethyl-4-(1-phenyl-4,5-dihydro-1H-pyrazol-3-yloxy)-chroman-3-ol]
3.09	CC1(C)Oc2ccc(C#N)cc2[C@@H](Nc2nc3cc([N+](=O)[O-])ccc3s2)[C@@H]1O (racemic) [Compound 6, 3-Hydroxy-2,2-dimethyl-4-(5-nitro-benzothiazol-2-ylamino)-chroman-6-carbonitrile]
> 30	CC1(C)Oc2ccc(S(=O)(=O)N3CCCCC3)cc2[C@@H](Nc2noc3ccc(Cl)cc23)[C@@H]1O [Compound 88, 4R-(5-Chloro-benzo[d]isoxazol-3-ylamino)-2,2-dimethyl-6-(piperidine-1-sulfonyl)-chroman-3S-ol]
1.54	CC1(C)Oc2ccc(C#N)cc2[C@@H](NS(=O)(=O)c2cccc(Cl)c2)[C@@H]1O [Compound 66, (3S,4R)-3-Chloro-N-(6-cyano-3-hydroxy-2,2-dimethyl-chroman-4-yl)-benzenesulfonamide]
14.1	CC1(C)Oc2ccc(C#N)cc2[C@@H](n2sc3ccccc3c2=O)[C@@H]1O [Compound 30]
6.34	CC1(C)Oc2ccc(C#N)cc2[C@@H](N2CCN(c3ccc(F)cc3)CC2)[C@@H]1O (racemic) [Compound 48, 4-[4-(4-Fluoro-phenyl)-piperazin-1-yl]-3-hydroxy-2,2-dimethyl-chroman-6-carbonitrile]
> 30	CC1(C)Oc2ccc(Cl)cc2[C@@H](Oc2ccn(-c3ccccc3)n2)[C@@H]1O (racemic) [Compound 60, 6-Chloro-2,2-dimethyl-4-(1-phenyl-1H-pyrazol-3-yloxy)-chroman-3-ol]
> 30	CC1(C)Oc2ccc(C#N)cc2[C@@H](SC2=NCCc3ccccc32)[C@@H]1O [Compound 42, 4R-(3,4-Dihydro-isoquinolin-1-ylsulfanyl)-3S-hydroxy-2,2-dimethyl-chroman-6-carbonitrile]
